Like-named read-outs stand apart in the source and are kept apart here.
Tests used:
[1] = molecular target: T1, calcium-sensing receptor (CASR) (Homo sapiens, UniProt P41180); assay: CaSR activation, HTRF IP-1 competition method in HEK293-CaSR cells; type: cell-based
T1 construct: expressed in transfected cells; host or cells: HEK293-CaSR cells
T1 sequence (P41180 20-1078): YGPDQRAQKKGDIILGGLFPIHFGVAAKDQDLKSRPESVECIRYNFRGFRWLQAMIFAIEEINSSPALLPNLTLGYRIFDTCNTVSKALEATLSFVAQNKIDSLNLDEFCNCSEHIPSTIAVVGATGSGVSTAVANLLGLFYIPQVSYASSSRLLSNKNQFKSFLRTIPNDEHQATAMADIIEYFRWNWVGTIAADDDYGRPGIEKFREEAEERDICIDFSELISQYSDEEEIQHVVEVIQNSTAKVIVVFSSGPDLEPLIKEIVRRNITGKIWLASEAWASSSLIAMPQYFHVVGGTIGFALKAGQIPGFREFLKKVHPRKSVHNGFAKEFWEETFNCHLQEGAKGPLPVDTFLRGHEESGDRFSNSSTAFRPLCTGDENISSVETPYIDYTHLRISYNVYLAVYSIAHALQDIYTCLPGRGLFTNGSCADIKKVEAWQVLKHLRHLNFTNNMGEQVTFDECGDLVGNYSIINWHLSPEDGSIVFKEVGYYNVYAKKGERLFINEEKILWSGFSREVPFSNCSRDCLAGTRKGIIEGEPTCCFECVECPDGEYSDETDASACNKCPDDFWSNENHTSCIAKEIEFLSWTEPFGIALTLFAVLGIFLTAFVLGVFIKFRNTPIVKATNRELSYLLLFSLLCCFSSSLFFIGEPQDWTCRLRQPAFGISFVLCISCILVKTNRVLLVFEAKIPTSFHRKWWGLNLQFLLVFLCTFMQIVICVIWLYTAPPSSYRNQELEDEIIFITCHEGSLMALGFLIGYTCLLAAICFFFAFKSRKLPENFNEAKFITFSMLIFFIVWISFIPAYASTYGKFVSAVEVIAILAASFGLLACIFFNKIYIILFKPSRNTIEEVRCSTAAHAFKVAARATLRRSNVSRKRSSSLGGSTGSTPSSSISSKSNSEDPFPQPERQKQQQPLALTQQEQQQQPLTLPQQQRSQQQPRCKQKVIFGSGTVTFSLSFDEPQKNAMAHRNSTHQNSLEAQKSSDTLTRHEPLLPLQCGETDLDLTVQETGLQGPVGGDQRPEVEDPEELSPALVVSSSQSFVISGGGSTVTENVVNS
Description: In the CaSR activation experiment, the Homogeneous Time-Resolved Fluorescence (HTRF) IP-1 (myolnositol 1 phosphate) competition method was used to detect the effect of the polypeptide of Example 1 on CaSR.

[2] = Effect of single intravenous injection on blood phosphorus in normal rats; type: in vivo, rat; details: for blood phosphorus level after a single intravenous bolus injection: normal SD rats
Procedure: (§1) Test method: SPF grade SD rats, weighing 250-280 g, were randomly divided into 7 groups, 6 administration groups and 1 blank control group (Vehicle=normal saline). The test samples were prepared into a solution with normal saline for administration. The test compound was administered by a single tail vein injection (1 mL/kg) at a dose of 0.5 mg/kg, 1.5 mg/kg and 4.5 mg/kg, respectively. Serum calcium (mmol/L) and phosphorus levels (mmol/L) were measured at 0 hour and at 4, 8 and 16 hours after administration.
(§2) Data processing: The concentrations of PTH, calcium and phosphorus in each group and at each time point were statistically analyzed using the graphpad 6.0 software.

[3] = Effect of single intravenous injection on blood calcium in normal rats; type: in vivo, rat; details: for blood calcium level after a single intravenous bolus injection: normal SD rats
Procedure: as §1, §2

[4] = Plasma PTH in 5/6 nephrectomy rats (secondary hyperparathyroidism model); type: in vivo, rat; details: 3.0 mg/kg s.c. three times a week
Procedure: Male SD rats were divided into a sham operation group and a 5/6 nephrectomy group (5/6Nx). Rats in the nephrectomy group underwent 5/6 nephrectomy, and were fed with high-phosphorus diet for two weeks after the operation to accelerate the induction of the secondary hyperparathyroidism rat model. After being fed with high-phosphorus diet for 3 weeks, the model rats were randomly divided into 6 groups, a 5/6Nx group (Vehicle), a positive control drug etelcalcetide group (3.0 mg/kg) and 4 groups of the compound of Example 1 (0.5, 1.0, 2.0, 4.0 mg/kg). The rats were administered subcutaneously three times a week for 6 consecutive weeks. Before the first administration, after the first administration, and 4 hours after administration in the 2nd, 4th, and 6th week, blood samples were collected from rats, and the plasma and serum were separated for the detection of the content of PTH in the plasma at each time point.

[5] = Cortical bone porosity in adenine-gavage SHPT rats (Micro CT of femur); type: in vivo, rat; details: 3.0 mg/kg s.c. three times a week for six weeks, Mean ± SEM
Procedure: According to the Yokozawz method, SD rats were given adenine gavage to establish an animal model of chronic renal failure, and fed with a high-phosphorus diet to induce a model of secondary hyperparathyroidism. Rats were fed until the end of the experiment, and model rats were screened according to the content of PTH in plasma. According to the PTH content and body weight, the model rats were randomly divided into 5 groups: a normal saline group, an etelcalcetide (3.0 mg/kg, dissolved in normal saline) group, 3 groups of Example 1 (1.0 mg/kg, 2.0 mg/kg and 4.0 mg/kg, dissolved in normal saline), and subcutaneously administered three times a week for six consecutive weeks at 1.0 ml/kg per rat. Six weeks later, the left femur of the rat was taken, the muscle and connective tissue were removed, and the femur was placed in a 4% formalin solution. Micro CT scanning was performed 24 hours later, and data was subjected analysis.

[6] = test system: osteoblast MC3T3-E1 Subclone 4 cells; assay: CyQUANT in vitro proliferation of osteoblast cells; type: cell-based; details: FIG. 1; Example 1 effect more pronounced than that of OGP
Procedure: (§3) The CyQUANT cell proliferation detection kit was used to determine the in vitro proliferation effect of the polypeptide of Example 1 on osteoblast MC3T3-E1 Subclone 4 and fibroblast NIH/3T3 cells. Osteogenic growth peptide (OGP) was used as a positive control in the experiment. The polypeptide of Example 1 and OGP were prepared to the following concentrations: 10^−8 mol/L, 10^−9 mol/L, 10^−10 mol/L, 10^−11 mol/L, 10^−12 mol/L, 10^−13 mol/L, 10^−14 mol/L, 10^−15 mol/L and 10^−16 mol/L. 100 μL of medium was discarded from each well of the cell plate to be tested, and 100 μL of 2×CyQuant detection reagent was added to each well. The plate was then placed in a 37° C., 5% CO2 incubator for 60 min. Fluorescence values were read in bottom-reading mode with excitation and emission wavelengths of 480/535 nm.
(§4) % relative to Control=(reading value of compound well−reading value of blank control well)/(reading value of base control well−reading value of blank control well)×100

fibroblast NIH/3T3 cells = assay: CyQUANT in vitro proliferation of fibroblast cells; type: cell-based; details: FIG. 1; comparable effective dose for Example 1 and OGP
Procedure: as §3, §4

[7] = 0.5 mg/kg i.v., 0 h (before administration)
[8] = 1.5 mg/kg i.v., 0 h (before administration)
[9] = 4.5 mg/kg i.v., 0 h (before administration)

Compound: CC(=O)N[C@H](CSSC[C@H](NC(=O)CNC(=O)CNC(=O)[C@@H](Cc1ccccc1)NC(=O)C(C)(C)NC(=O)[C@H](N)Cc1ccc(O)cc1)C(=O)O)C(=O)N[C@H](C)C(=O)N[C@H](CCCNC(=N)N)C(=O)N[C@H](CCCNC(=N)N)C(=O)N[C@H](CCCNC(=N)N)C(=O)N[C@H](C)C(=O)N[C@H](CCCNC(=N)N)C(N)=O [Example 1]
- EC50 ([1]; Ca2+ concentration of 1.2 mM, read-out: EC50, agonistic activity on HEK293-CaSR cells): 84.7 µM
- EC50 ([1]; in the absence of Ca2+, read-out: EC50, agonist activity on HEK293-CaSR cells): 980 µM

Compound: Example 2: Ac-D-Cys-D-Ala-D-Arg-D-Arg-D-Arg-D-Ala-D-Arg-NH2 linked by disulfide bond to H-D-Tyr-D-Arg-D-Phe-Gly-Gly-L-Cys-OH (CARRRAR; D-amino acids, Ac, NH2, disulfide-linked second peptide; MOD_RES (1)..(7) Cys, Ala and Arg are D-amino acids; MOD_RES (1)..(1) Cys is acetylated; MOD_RES (7)..(7) Arg is amidated; BINDING (1)..(1) Cys is linked ot Cys in SEQ ID NO 6 via disulfide bond)
- time at which serum phosphorus level reached the highest ([2]; high-dose group (4.5 mg/kg)): 8 h
- time at which serum phosphorus level reached the highest ([2]; low-dose group (0.5 mg/kg and 1.5 mg/kg)): 4 h
- blood phosphorus level after a single intravenous bolus injection [2, 7]: 2.70 ± 0.06 mmol/L
- blood phosphorus level after a single intravenous bolus injection ([2]; 0.5 mg/kg i.v., 4 h): 2.78 ± 0.14 mmol/L
- blood phosphorus level after a single intravenous bolus injection ([2]; 0.5 mg/kg i.v., 8 h): 2.67 ± 0.06 mmol/L
- blood phosphorus level after a single intravenous bolus injection ([2]; 0.5 mg/kg i.v., 16 h): 2.49 ± 0.08 mmol/L
- blood phosphorus level after a single intravenous bolus injection [2, 8]: 2.65 ± 0.08 mmol/L
- blood phosphorus level after a single intravenous bolus injection ([2]; 1.5 mg/kg i.v., 4 h): 3.04 ± 0.08 mmol/L
- blood phosphorus level after a single intravenous bolus injection ([2]; 1.5 mg/kg i.v., 8 h): 3.05 ± 0.08 mmol/L
- blood phosphorus level after a single intravenous bolus injection ([2]; 1.5 mg/kg i.v., 16 h): 2.47 ± 0.06 mmol/L
- blood phosphorus level after a single intravenous bolus injection [2, 9]: 2.63 ± 0.02 mmol/L
- blood phosphorus level after a single intravenous bolus injection ([2]; 4.5 mg/kg i.v., 4 h): 3.31 ± 0.08 mmol/L
- blood phosphorus level after a single intravenous bolus injection ([2]; 4.5 mg/kg i.v., 8 h): 3.67 ± 0.1 mmol/L
- blood phosphorus level after a single intravenous bolus injection ([2]; 4.5 mg/kg i.v., 16 h): 2.49 ± 0.06 mmol/L
- effect on blood phosphorus concentration (in words) ([2]; normal rats, single tail vein bolus injection): increasing the blood phosphorus concentration
- blood calcium level after a single intravenous bolus injection [3, 7]: 2.42 ± 0.02 mmol/L
- blood calcium level after a single intravenous bolus injection ([3]; 0.5 mg/kg i.v., 4 h): 2.05 ± 0.04 mmol/L
- blood calcium level after a single intravenous bolus injection ([3]; 0.5 mg/kg i.v., 8 h): 2.20 ± 0.02 mmol/L
- blood calcium level after a single intravenous bolus injection ([3]; 0.5 mg/kg i.v., 16 h): 2.27 ± 0.01 mmol/L
- blood calcium level after a single intravenous bolus injection [3, 8]: 2.41 ± 0.06 mmol/L
- blood calcium level after a single intravenous bolus injection ([3]; 1.5 mg/kg i.v., 4 h): 2.02 ± 0.06 mmol/L
- blood calcium level after a single intravenous bolus injection ([3]; 1.5 mg/kg i.v., 8 h): 1.84 ± 0.04 mmol/L
- blood calcium level after a single intravenous bolus injection ([3]; 1.5 mg/kg i.v., 16 h): 2.10 ± 0.03 mmol/L
- blood calcium level after a single intravenous bolus injection [3, 9]: 2.45 ± 0.02 mmol/L
- blood calcium level after a single intravenous bolus injection ([3]; 4.5 mg/kg i.v., 4 h): 1.79 ± 0.03 mmol/L
- blood calcium level after a single intravenous bolus injection ([3]; 4.5 mg/kg i.v., 8 h): 1.53 ± 0.03 mmol/L
- blood calcium level after a single intravenous bolus injection ([3]; 4.5 mg/kg i.v., 16 h): 1.64 ± 0.17 mmol/L
- blood calcium levels compared with the concentration before administration (in words) ([3]; normal rats, single tail vein bolus injection, each administration group, P≤0.01): decreased significantly

Compound: CC(=O)N[C@H](CSSC[C@H](N)C(=O)O)C(=O)N[C@H](C)C(=O)N[C@H](CCCNC(=N)N)C(=O)N[C@H](CCCNC(=N)N)C(=O)N[C@H](CCCNC(=N)N)C(=O)N[C@H](C)C(=O)N[C@H](CCCNC(=N)N)C(N)=O [Etelcalcetide, etelcalcetide]
- PTH change in plasma 4 h after administration ([4]; 2 weeks): −95.57 ± 0.28%
- PTH change in plasma 4 h after administration ([4]; 4 weeks): −93.81 ± 0.59%
- PTH change in plasma 4 h after administration ([4]; 6 weeks): −92.63 ± 0.77%
- PTH change in plasma 4 h after administration ([4]; first administration): −92.03 ± 0.67%
- Cortical bone porosity [5]: 4.13 ± 2.27%

Compound: Osteogenic growth peptide [OGP]
- concentration that significantly stimulated proliferation of osteoblast MC3T3-E1 Subclone 4 cells [6]: 10^−8 to 10^−16 M
- concentration that significantly stimulates proliferation of fibroblast NIH3T3 cells (effective dose) (fibroblast NIH/3T3 cells): 10^−8 M
